According to US10369149B2, “4-(2-amino-tetrahydronaphthalenyl)pyrimidine derivative, preparation method therefor, and pharmaceutical composition for preventing or treating cancer, containing same as active ingredient” (KOREA RESEARCH INSTITUTE OF CHEMICAL TECHNOLOGY, priority 2015, dated 2019):
Where a name gives a salt, the structure may show the parent alone. Read-outs that look alike come from different tables or passages of the source.

What was measured:
Ba/F3 EML4-ALK L1196M = Ba/F3 EML4-ALK L1196M (Homo sapiens, UniProt Q9UM73, L1196M, cells depend on it); assay: ALK inhibitory activity in Ba/F3 EML4-ALK L1196M, SRB staining of live cells; details: read-out: Ba/F3 EML4-ALK L1196M, three days
Protocol: Particularly, 4,000 ALK L1196M cells containing ALK enzyme were distributed in each well of a 96 well plate together with 100 μl of DMEM (Dulbecco's Modified Eagle's Medium). […] DMSO (dimethylsulfoxide) was added to the well that was not loaded with the compound by the same amount as the compound. Three days after the addition of the compound, DMEM was eliminated. 10% TCA (trichloroacetic acid) was added to fix the cells. The wells were washed with running water three times and the live cells were stained with SRB solution (1× sulphorodamine B). Then, OD was measured to calculate the population of the live cells.

[1] = test system: human non-small cell lung cancer cell line H3122; assay: In vivo xenograft evaluation for H3122 induced lung cancer; set-up: species or system nude mice (BALB/c nu/nu, female); details: H3122 xenograft s.c. in nude mice, oral, q.d.×14, FIGS. 1 and 2
Description: The nude mice (BALB/c nu/nu, female) used in this experiment were purchased from Charles River Japan, Inc. and raised and tested under SPF (Specific Pathogen Free) control. The human non-small cell lung cancer cell line H3122 maintained by Korea Research Institute of Chemical Technology was used in this experiment. The female nude mice adapted to the laboratory were implanted with cancer. Particularly, H3122 cells grown to the appropriate size for passage were cut into 3×3×3 mm^3, which was transplanted (s.c.) under the right side of the nude mouse. […] For the control, 20% PEG 400+3% Tween 80 in DDW was orally administered. For the experimental group (7 mice/group), the compound was dissolved in the same solvent of the control, which was orally administered 14 times in total (q.d.×14). The size of the cancer was measured every 2˜3 days after the administration using a caliper and the diameters (long diameter (a), short diameter (b)) of the cancer were measured. The size of the cancer (volume, V) was calculated according to mathematical formula 1. Volume (mm^3)=a×b^2/2 [Mathematical Formula 1] FIG. 1 is a graph showing the results of observing the size of cancer in the control group (CONTROL), the LDK378-treated group, and the group treated with the compound of example 14 over the time. […]

[2] = test system: H3122, the non-small cell lung cancer cell line; assay: ALK inhibitory activity in H3122, SRB staining of live cells; format: cell-based; details: Homo sapiens
Protocol: […] One day later, the compound of the present invention was added to each well at different concentrations of 10 μM, 2 μM, 0.4 μM, 0.08 μM, […], and 0.00032 μM. DMSO (dimethylsulfoxide) was added to the well that was not loaded with the compound by the same amount as the compound. Three days after the addition of the compound, DMEM was eliminated. 10% TCA (trichloroacetic acid) was added to fix the cells. The wells were washed with running water three times and the live cells were stained with SRB solution (1× sulphorodamine B). Then, OD was measured to calculate the population of the live cells. IC50 of the experimental compound used in the experiment above was calculated by using prism software (Version 5.01, Graphpad).
Table 2 presents the ALK inhibitory activity of the compounds of the examples of the present invention in H3122 containing ALK enzyme.

[3] = test system: ALK L1196M cells containing ALK enzyme; assay: ALK inhibitory activity in ALK L1196M cells, SRB staining of live cells; format: cell-based; details: ALK L1196M cells
Protocol: DMSO (dimethylsulfoxide) was added to the well that was not loaded with the compound by the same amount as the compound. Three days after the addition of the compound, DMEM was eliminated. 10% TCA (trichloroacetic acid) was added to fix the cells. The wells were washed with running water three times and the live cells were stained with SRB solution (1× sulphorodamine B). Then, OD was measured to calculate the population of the live cells. IC50 of the experimental compound used in the experiment above was calculated by using prism software (Version 5.01, Graphpad). […] Table 2 presents the ALK inhibitory activity of the compounds of the examples of the present invention in ALK L1196M containing ALK enzyme.

ALK enzyme = ALK enzyme (Homo sapiens, UniProt Q9UM73); assay: Anaplastic lymphoma kinase (ALK) inhibitory activity, HTRF kinase assay; format: biochemical
[4] = NCI-H3122, 72 h, three days, SRB, read-out: Non-small cell lung cancer cell line H3122
[5] = NCI-H3122, read-out: ALK inhibitory activity in H3122 containing ALK enzyme at the concentration range
[6] = 72 h, three days, SRB, read-out: ALK L1196M
[7] = read-out: ALK inhibitory activity in ALK L1196M containing ALK enzyme at the concentration
[8] = read-out: anaplastic lymphoma kinase (ALK) inhibitory activity at the concentration

Chain of ALK enzyme (Q9UM73 19-1620): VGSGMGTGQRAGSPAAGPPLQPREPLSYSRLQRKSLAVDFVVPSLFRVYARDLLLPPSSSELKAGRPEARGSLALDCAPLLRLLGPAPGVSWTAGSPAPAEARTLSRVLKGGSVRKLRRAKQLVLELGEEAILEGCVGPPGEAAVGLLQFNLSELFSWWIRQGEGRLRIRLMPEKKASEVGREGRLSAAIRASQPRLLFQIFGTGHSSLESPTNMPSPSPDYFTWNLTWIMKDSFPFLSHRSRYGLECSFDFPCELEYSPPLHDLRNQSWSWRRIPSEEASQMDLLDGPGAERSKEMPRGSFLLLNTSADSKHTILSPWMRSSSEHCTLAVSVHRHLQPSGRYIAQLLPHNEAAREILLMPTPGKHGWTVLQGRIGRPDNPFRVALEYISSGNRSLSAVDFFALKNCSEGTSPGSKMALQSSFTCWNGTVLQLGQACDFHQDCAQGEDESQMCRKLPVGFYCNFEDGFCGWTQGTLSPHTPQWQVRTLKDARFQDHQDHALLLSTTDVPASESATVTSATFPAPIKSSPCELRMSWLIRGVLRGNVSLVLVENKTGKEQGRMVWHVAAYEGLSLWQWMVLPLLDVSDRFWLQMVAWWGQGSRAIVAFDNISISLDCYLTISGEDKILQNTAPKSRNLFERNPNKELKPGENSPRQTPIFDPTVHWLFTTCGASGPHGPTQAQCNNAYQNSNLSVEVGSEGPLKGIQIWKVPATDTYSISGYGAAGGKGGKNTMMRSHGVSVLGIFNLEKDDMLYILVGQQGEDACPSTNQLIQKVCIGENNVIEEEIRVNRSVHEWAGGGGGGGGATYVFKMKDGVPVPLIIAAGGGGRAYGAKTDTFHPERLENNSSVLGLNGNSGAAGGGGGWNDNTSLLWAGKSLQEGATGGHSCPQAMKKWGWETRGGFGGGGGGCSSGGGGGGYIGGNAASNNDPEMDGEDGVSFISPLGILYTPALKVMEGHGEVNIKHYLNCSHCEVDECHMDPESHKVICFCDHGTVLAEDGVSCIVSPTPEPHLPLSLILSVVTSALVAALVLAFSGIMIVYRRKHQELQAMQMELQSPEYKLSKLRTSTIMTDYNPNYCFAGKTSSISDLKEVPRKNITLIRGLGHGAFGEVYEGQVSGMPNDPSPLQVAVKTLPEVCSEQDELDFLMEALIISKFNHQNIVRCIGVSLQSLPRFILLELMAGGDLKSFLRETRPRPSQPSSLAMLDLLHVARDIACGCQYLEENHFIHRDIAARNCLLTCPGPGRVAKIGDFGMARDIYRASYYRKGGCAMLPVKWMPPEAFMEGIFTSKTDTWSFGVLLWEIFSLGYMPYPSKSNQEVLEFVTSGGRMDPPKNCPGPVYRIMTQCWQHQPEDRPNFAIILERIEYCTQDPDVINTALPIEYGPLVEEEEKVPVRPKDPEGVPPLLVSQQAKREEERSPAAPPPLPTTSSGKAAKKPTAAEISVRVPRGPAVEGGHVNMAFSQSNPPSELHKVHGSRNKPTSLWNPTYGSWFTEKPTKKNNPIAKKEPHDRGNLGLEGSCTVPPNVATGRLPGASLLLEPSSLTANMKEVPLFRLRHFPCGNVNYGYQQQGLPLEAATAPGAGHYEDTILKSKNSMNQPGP
Chain of Ba/F3 EML4-ALK L1196M (Q9UM73 whole entry L1196M): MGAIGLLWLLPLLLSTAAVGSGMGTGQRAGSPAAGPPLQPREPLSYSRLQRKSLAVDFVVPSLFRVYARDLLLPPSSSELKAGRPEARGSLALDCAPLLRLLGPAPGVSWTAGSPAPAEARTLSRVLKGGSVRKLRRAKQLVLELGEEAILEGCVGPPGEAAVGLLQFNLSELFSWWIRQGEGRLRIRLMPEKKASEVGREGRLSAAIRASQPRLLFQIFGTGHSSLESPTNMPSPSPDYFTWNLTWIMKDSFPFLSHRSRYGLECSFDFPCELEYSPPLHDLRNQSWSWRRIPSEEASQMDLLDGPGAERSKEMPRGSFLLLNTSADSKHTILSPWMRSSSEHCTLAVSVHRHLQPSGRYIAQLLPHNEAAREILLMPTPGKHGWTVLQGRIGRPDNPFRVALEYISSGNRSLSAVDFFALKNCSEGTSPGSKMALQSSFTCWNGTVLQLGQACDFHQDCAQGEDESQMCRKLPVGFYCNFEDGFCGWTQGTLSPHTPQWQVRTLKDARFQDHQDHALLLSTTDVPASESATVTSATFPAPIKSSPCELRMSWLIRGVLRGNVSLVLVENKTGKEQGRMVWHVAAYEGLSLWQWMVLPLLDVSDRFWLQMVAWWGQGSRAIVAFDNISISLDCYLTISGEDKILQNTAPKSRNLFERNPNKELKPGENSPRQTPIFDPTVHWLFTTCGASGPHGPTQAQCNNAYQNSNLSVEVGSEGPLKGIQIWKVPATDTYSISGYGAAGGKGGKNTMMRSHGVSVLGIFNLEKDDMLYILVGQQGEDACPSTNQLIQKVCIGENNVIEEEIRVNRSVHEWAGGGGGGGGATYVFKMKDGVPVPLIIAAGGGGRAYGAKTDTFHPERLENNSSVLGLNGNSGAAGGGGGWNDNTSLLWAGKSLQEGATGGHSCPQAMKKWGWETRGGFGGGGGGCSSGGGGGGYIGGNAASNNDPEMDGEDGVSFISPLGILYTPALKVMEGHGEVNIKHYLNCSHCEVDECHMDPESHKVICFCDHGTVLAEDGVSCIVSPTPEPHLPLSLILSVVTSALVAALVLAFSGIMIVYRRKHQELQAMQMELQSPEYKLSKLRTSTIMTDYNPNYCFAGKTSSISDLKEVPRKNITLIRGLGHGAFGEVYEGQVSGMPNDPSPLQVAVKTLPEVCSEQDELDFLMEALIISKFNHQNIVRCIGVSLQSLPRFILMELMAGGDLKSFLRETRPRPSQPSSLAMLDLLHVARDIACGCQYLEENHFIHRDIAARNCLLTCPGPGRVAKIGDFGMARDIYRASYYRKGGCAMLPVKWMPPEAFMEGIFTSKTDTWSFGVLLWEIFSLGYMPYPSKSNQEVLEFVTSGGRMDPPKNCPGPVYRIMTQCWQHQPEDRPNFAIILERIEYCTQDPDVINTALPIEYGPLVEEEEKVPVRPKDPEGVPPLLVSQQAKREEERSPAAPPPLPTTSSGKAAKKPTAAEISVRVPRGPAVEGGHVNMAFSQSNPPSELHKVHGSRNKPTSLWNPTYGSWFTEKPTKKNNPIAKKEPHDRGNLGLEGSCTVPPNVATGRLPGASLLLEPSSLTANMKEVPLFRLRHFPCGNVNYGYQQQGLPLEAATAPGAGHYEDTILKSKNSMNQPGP

| Structure (SMILES) | GI50 (Ba/F3 EML4-ALK L1196M) [nM] | IC50 [2, 4] [nM] | IC50 [2, 5] [nM] | IC50 (ALK enzyme; HTRF, read-out: ALK) [nM] | IC50 (ALK enzyme; [8]) [nM] | effect of inhibiting cancer size [1] | IC50 [3, 6] [nM] | IC50 [3, 7] [nM] |
| --- | --- | --- | --- | --- | --- | --- | --- | --- |
| COc1cc2c(cc1Nc1ncc(Cl)c(Nc3ccccc3S(=O)(=O)C(C)C)n1)C(C)(C)C(NC(=O)C(F)(F)F)CC2 (stereo not shown) [Example 7, N-(7-(5-chloro-4-(2-(isopropylsulfonyl)phenylamino)pyrimidine-2-ylamino)-6-methoxy-1,1-dimethyl-1,2,3,4-tetrahydronaphthalene-2-yl)-2,2,2-trifluoroacetamide] | > 100 | > 100 |  | > 100 |  |  | > 100 |  |
| COc1cc2c(cc1Nc1ncc(Cl)c(Nc3ccccc3S(=O)(=O)C(C)C)n1)CC/C(=N\NC(=N)N)C2(C)C [Example 11, (E)-2-(6-(5-chloro-4-(2-(isopropylsulfonyl)phenylamino)pyrimidine-2-ylamino)-7-methoxy-1,1-dimethyl-3,4-dihydronaphthalene-2(1H)-yladene)hydrogencarboxamideamide] | > 100 | > 100 |  | 10 to 100 |  |  | 10 to 100 |  |
| COc1cc2c(cc1Nc1ncc(Cl)c(Nc3ccccc3S(=O)(=O)C(C)C)n1)CC/C(=N\N)C2(C)C [Example 13, (E)-5-chloro-N2-(6-hydrazono-3-methoxy-5,5-dimethyl-5,6,7,8-tetrahydronaphthalene-2-yl)-N4-(2-(isopropylsulfonyl)phenyl)pyrimidine-2,4-diamine hydrochloride] | > 100 | 10 to 100 | 10 to 100 | 10 to 100 |  |  | 10 to 100 |  |
| COc1cc2c(cc1Nc1ncc(Cl)c(Nc3ccccc3S(=O)(=O)C(C)C)n1)CCC(N1CCOCC1)C2 (stereo not shown) [Example 1, 5-chloro-N4-(2-(isopropylsulfonyl)phenyl)-N2-(3-methoxy-6-morpholino-5,6,7,8-tetrahydronaphthalene-2-yl)pyrimidine-2,4-diamine] | 10 to 100 | 10 to 100 | 10 to 100 | < 10 | ≤ 10 |  | 10 to 100 |  |
| COc1cc2c(cc1Nc1ncc(Cl)c(Nc3ccccc3S(=O)(=O)C(C)C)n1)CC/C(=N\NC(N)=O)C2(C)C [Example 10, (E)-2-(6-(5-chloro-4-(2-(isopropylsulfonyl)phenylamino)pyrimidine-2-ylamino)-7-methoxy-1,1-dimethyl-3,4-dihydronaphthalene-2(1H)-yladene)hydrogencarboxamide] | > 100 | > 100 |  | 10 to 100 |  |  | 10 to 100 |  |

Second part, led by results:

| GI50 (Ba/F3 EML4-ALK L1196M) [nM] | IC50 [2, 4] [nM] | IC50 [2, 5] [nM] | IC50 (ALK enzyme; HTRF, read-out: ALK) [nM] | IC50 (ALK enzyme; [8]) [nM] | Structure (SMILES) | effect of inhibiting cancer size [1] | IC50 [3, 6] [nM] | IC50 [3, 7] [nM] |
| --- | --- | --- | --- | --- | --- | --- | --- | --- |
| 10 to 100 | 10 to 100 | 10 to 100 | < 10 | ≤ 10 | COc1cc2c(cc1Nc1ncc(Cl)c(Nc3ccccc3S(=O)(=O)C(C)C)n1)CCC(N)C2(C)C (stereo not shown) [Example 22, N2-(6-amino-3-methoxy-5,5-dimethyl-5,6,7,8-tetrahydronaphthalene-2-yl)-5-chloro-N4-(2-(isopropylsulfonyl)phenyl)pyrimidine-2,4-diamine] | excellent, similar to LDK378 | < 10 | ≤ 10 |
| > 100 | > 100 |  | 10 to 100 |  | COc1cc2c(cc1Nc1ncc(Cl)c(Nc3ccccc3S(=O)(=O)C(C)C)n1)C(C)(C)/C(=N/NC(=N)N)CC2 [Example 18, (E)-2-(7-(5-chloro-4-(2-(isopropylsulfonyl)phenylamino)pyrimidine-2-ylamino)-6-methoxy-1,1-dimethyl-3,4-dihydronaphthalene-2(1H)-yladene)hydrogencarboxamideamide] |  | 10 to 100 |  |
| 10 to 100 | 10 to 100 | 10 to 100 | < 10 | ≤ 10 | COc1cc2c(cc1Nc1ncc(Cl)c(Nc3ccccc3S(=O)(=O)C(C)C)n1)CCC(NC(=O)CO)C2(C)C (stereo not shown) [Example 26, N-(6-(5-chloro-4-(2-(isopropylsulfonyl)phenylamino)pyrimidine-2-ylamino)-7-methoxy-1,1-dimethyl-1,2,3,4-tetrahydronaphthalene-2-yl)-2-hydroxyacetamide] |  | < 10 | ≤ 10 |
| > 100 | > 100 |  | 10 to 100 |  | COc1cc2c(cc1Nc1ncc(Cl)c(Nc3ccccc3S(=O)(=O)C(C)C)n1)C(C)(C)C(O)CC2 (stereo not shown) [Example 25, 7-(5-chloro-4-(2-(isopropylsulfonyl)phenylamino)pyrimidine-2-ylamino)-6-methoxy-1,1-dimethyl-1,2,3,4-tetrahydronaphthalene-2-ol] |  | 10 to 100 |  |
| 10 to 100 | 10 to 100 | 10 to 100 | < 10 | ≤ 10 | COc1cc2c(cc1Nc1ncc(Cl)c(Nc3ccccc3S(=O)(=O)C(C)C)n1)CCC(N(C)C)C2(C)C (stereo not shown) [Example 28, 5-chloro-N2-(6-(dimethylamino)-3-methoxy-5,5-dimethyl-5,6,7,8-tetrahydronaphthalene-2-yl)-N4-(2-(isopropylsulfonyl)phenyl)pyrimidine-2,4-diamine] |  | < 10 | ≤ 10 |
| 10 to 100 | 10 to 100 | 10 to 100 | < 10 | ≤ 10 | COc1cc2c(cc1Nc1ncc(Cl)c(Nc3ccccc3S(=O)(=O)C(C)C)n1)CC/C(=N\N1CCN(C)CC1)C2(C)C [Example 14, (E)-5-chloro-N4-(2-(isopropylsulfonyl)phenyl)-N2-(3-methoxy-5,5-dimethyl-6-(4-methylpiperazine-1-ylimino)-5,6,7,8-tetrahydronaphthalene-2-yl)pyrimidine-2,4-diamine] | excellent, similar to LDK378 | < 10 | ≤ 10 |
